Measured values reported in US20030175254A1, “Method of obtaining purified enterochromaffin cells and methods of using same” (priority 2001, published 2003).

System: Intestinal EC Cells
Test: Serotonin release from cultured rat intestinal (ileal) EC cell fractions, serotonin EIA
Type: cell-based
Conditions: 60 minutes, 100,000 cells cultured overnight
Description: Male Sprague-Dawley rats (n=5 per preparation) were euthanized and the ileum was completely removed and divided into 2-3 pieces. Following end-ligation, these pieces of intestine were everted and filled with an enzyme mix of Pronase E (0.7 mg/mL), and collagenase (0.25 mg/ml). Cells were separated from the muscularis by alternative switching between a calcium containing Respiration medium and a 2 mM EDTA-containing digestive medium (with shaking). A total of 1-2×10^8 cells were obtained from each preparation. Five fractions of cells (F1-F5) were separated by counterflow-elutriation using flow rates of 25 ml/min at 2,500 rpm. Cells (100,000) were cultured overnight in Dulbecco's modified Eagles medium (DMEM)-F12 medium supplemented with 2 mg/ml bovine serum albumin, 5% fetal bovine serum, 5 mg/l gentamicin, 5 mg/l insulin, 5 mg/l transferring, 5 μg/l sodium selenite, and 1 nM hydrocortisone). After removal of the medium, fresh culture medium containing agonists (PACAP, galanin, forskolin, each at 10 nM) was added to the cells for 60 minutes. This medium was removed and the serotonin measured using an serotonin EIA kit and expressed as ng serotonin/100,000 cells/60 min.

Compound	serotonin release, fold versus controls (agonist 10 nM, positive control, p<0.05) [fold]	serotonin release versus controls (10^-8 M, negatively regulated serotonin release)
C=C[C@@]1(C)CC(=O)[C@]2(O)[C@@]3(C)[C@@H](O)CCC(C)(C)[C@@H]3[C@H](O)[C@H](OC(C)=O)[C@@]2(C)O1 [Forskolin]	2.1±0.14	
pituitary adenylate cyclase stimulating peptide [PACAP]		0.88±0.06
